Values quoted from earlier work in patent US20040097404A1, “Supplement to be enternally administered for parenteral nutrition or partial enteral/oral nurtrition of the critically ill, the chronically ill and people with malnutrition” (priority 2000, published 2004).

Legend:
[1] = oral, daily doses of 50 to 400 mg/kg of body weight over 3 weeks

Row | Structure (SMILES) | butyrate concentration in the plasma [1] [mmol] | toxic side effects [1] | carcinogenic properties at autopsy (parenteral form for 21 years, patient) | toxicity (trivalent chromium)
1 | CCCC(=O)OCC(COC(=O)CCC)OC(=O)CCC [glycerol tributyrate] | ~0.5 | without detectable toxic side effects |  | 
2 | [Cr+3] [trivalent chromium] |  |  | no evidence of carcinogenic properties | nontoxic
